Data on one compound can be found in patent publication US9181290B2, “Inhibition of biofilm formation by 1,2,3,4,6-penta-O-galloyl-D-glucopyranose” (CHANG GUNG UNIVERSITY, priority 2011, dated 2015).

Each structure is given as a SMILES string. Some results are limits rather than exact numbers.

The subject of experiment [1] is S. aureus SA113Δica (ATCC 35556Δica::tet). Put plainly: Biofilm formation by ica deletion mutant on polystyrene surface. The settings on record: 6 hrs. The class given is cell-based, Staphylococcus aureus. As for the experimental part: (§1) An overnight bacterial culture was 200-fold diluted with TSBg, and a 200 μL aliquot of the diluted culture was seeded into each well of 96-well polystyrene microtiter plates and incubated at 37° C. for a designated period of time. Cell growth was determined by measuring the absorbance at 578 nm (A578) with a microtiter plate reader (SpectraMax 340, Molecular Devices). After washing with PBS twice to remove suspended cells, the wells were stained with 0.1% (w/v) crystal violet in 10% ethanol and then treated with 30% acetic acid in dH2O, followed by detecting the absorbance at 595 nm (A595) with the microtiter plate reader to quantify the amount of biofilm formed on polystyrene surface.

Experiment [2] shares this test system. Put plainly: Biofilm formation by ica deletion mutant on polycarbonate surface. The class given is cell-based, Staphylococcus aureus. The note with it: 6 hrs. As for the experimental part:
To quantify the amount of biofilm formed on polycarbonate surface, a 13-mm-diameter polycarbonate disc (Thermanox, Nalgene Nunc International, Rochester, N.Y., USA) was placed in a well of a 24-well microtiter plate, followed by the addition of 1 mL aliquot of the diluted bacterial culture. After incubation at 37° C. for a designated period of time, viable cells were washed off the surface of the polycarbonate disc with PBS and counted as described above, while the PBS-washed polycarbonate disc was subjected to crystal violet staining for biofilm quantification as described above.

Experiment [3] relates to S. aureus SA113. The experiment is described as follows: Adherence assay: β-PGG added at different times after inoculation, biofilm by crystal violet at 6 hours. It is filed as cell-based, Staphylococcus aureus. The note with it: for reduction of biofilm formation: read at 6 hours. As for the experimental part:
At 6 hours after seeding, the wells were subjected to crystal violet staining to determine the amounts of biofilm formed on the inner surfaces of the wells of polystyrene microtiter plates or on the polycarbonate discs.

Experiment [4] relates to S. aureus SA113. The experiment is described as follows: CFU counting of cells adhered to polystyrene surface. The class given is cell-based, Staphylococcus aureus. The source says:
To count the number of viable cells, the removed suspended cells were suspended in PBS by pipetting, and the resultant cell suspension was sonicated and serially diluted and subsequently plated on TSBg agar plate for colony forming unit (CFU) counting according to a method described earlier (S. Schlag et al. (2007), J. Bacteriol., 189:7911-7919).
In addition to biofilm formation, the number of cells attached to polystyrene surface and polycarbonate surface were also counted. Subsequent to the incubation of S. aureus SA113 cells with β-PGG (0 μM, 6.25 μM or 12.5 μM) for 20, 40 and 60 min, cells adhered to the polystyrene surface or polycarbonate surface were washed and suspended in PBS, followed by plating on TSBg agar for CFU counting. After incubation on polystyrene surface for 20, 40 and 60 min, the number of cells counted for the DMSO-treated control (i.e., 0 μM β-PGG) was 4.1×10^5, 6.4×10^5 and 7.8×10^5 CFU, respectively (FIG. 4, panel A, black bars).

For experiment [5], the system named is S. aureus SA113. Put plainly: Fluorescence microscopy of adhered cells after Syto 9 staining. It is filed as cell-based, Staphylococcus aureus. The note with it: 6.25 μM and 12.5 μM, 60 min. As for the experimental part: Meanwhile, cells adhering to the polystyrene or polycarbonate surfaces were washed off with PBS at 60 min after seeding and stained with Syto 9 (Invitrogen), a green florescence dye that stains nucleic acids, followed by observation under a fluorescence microscope.
The cells adhering to the polystyrene surface and polycarbonate surface after treatment with 0 μM, 6.25 μM and 12.5 μM β-PGG for 60 min were also examined under a fluorescent microscope after Syto 9 staining.

In experiment [6] the test system is S. aureus SA113. The experiment is described as follows: Scanning electron microscopy of cells on polycarbonate discs. The class given is cell-based, Staphylococcus aureus. The settings on record: 3.13 μM, 6 hrs. As for the experimental part:
S. aureus SA113 cells were grown on polycarbonate discs in the presence or absence of 3.13 μM β-PGG. After 6 hours incubation, the discs were washed three times with PBS to remove planktonic cells and then prepared for SEM examination as described elsewhere (Guo-Xian Wei et al. (2006), supra). The samples thus prepared were observed using a Hitachi S-5000 scanning electron microscope.

For experiment [7], the system named is icaA gene transcription in S. aureus SA113. The experiment is described as follows: icaA expression by real-time RT-PCR. The class given is cell-based, Staphylococcus aureus. The settings on record: concentrations below 50 μM, 5 hr treatment, normalized to gyrB. Here is the method:
Bacterial cells were treated with 0.5 mg/mL lysostaphin (Sigma-Aldrich) at 37° C. for 15 min, and total bacterial mRNA was isolated and purified using a TRIzol reagent (Invitrogen) according to the manufacturer's instructions, followed by quantification of icaA expression by real-time RT-PCR (LightCycler, Roche, Mannheim, Germany). The icaA mRNA was reverse-transcribed and amplified using primers A1 (5′-[…]-3′) (SEQ ID NO:1) and B1 (5′-[…]-3′) (SEQ ID NO:2) that were designed based on the sequence of the icaA gene (Gene ID:3921484). […] Amplified PCR products were detected using a Light Cycler-RNA Amplification Kit Cyber Green 1 (Roche, Mannheim, Germany), starting with a cycle of denaturation at 95° C. for 5 min, then running for 45 cycles as follows: at 95° C. for 30 sec, 62° C. for 30 sec and 72° C. for 20 sec. To monitor the specificity of RT-PCR reaction, the PCR products were analyzed by melting curve analysis.
To determine whether the β-PGG inhibition effected at the transcriptional level, total mRNAs were isolated from S. aureus SA113 cells after 5 hr treatment with β-PGG at various concentration (0, 3.13, 12.5 and 50 μM), and transcription of the icaA gene was analyzed by LightCycler quantitative RT-PCR.

Experiment [8] has as its system S. carnosus TM300. Put plainly: Growth (A578) and biofilm (A595) in polystyrene plates. The class given is cell-based. The settings on record: 12.5 μM β-PGG, 6 hr. As for the experimental part:
In addition to the above S. aureus strains, S. epidermidis ATCC 35547 and S. epidermidis RP62A (ATCC 35984) were also studied for comparison.
as §1

The test system of experiment [9] is clinical strains SA289, SA44, SA435 and SA703. Put plainly: Biofilm formation by four less sensitive clinical strains at 50 μM (data not shown). The settings on record: across the four clinical strains. It is filed as cell-based, Staphylococcus aureus. As for the experimental part: as §1
Experiment [10] concerns S aureus SA113. The experiment is described as follows: Bacterial attachment onto glass coverslips (data not shown). The class given is cell-based, Staphylococcus aureus.

Regarding `O=C(OC[C@H]1O[C@@H](OC(=O)c2cc(O)c(O)c(O)c2)[C@H](OC(=O)c2cc(O)c(O)c(O)c2)[C@@H](OC(=O)c2cc(O)c(O)c(O)c2)[C@@H]1OC(=O)c1cc(O)c(O)c(O)c1)c1cc(O)c(O)c(O)c1` [β-PGG, 1,2,3,4,6-penta-O-galloyl-β-D-glucopyranose], in [1] (1.56 μM), the “effect on biofilm formation by the mutant, polystyrene surface” value is given as “did not affect the biofilm formation”. Also, the “decrease of the amount of biofilm, polystyrene surface” value in experiment [1] (3.13 μM) amounted to 72%. Further, the “decrease of the amount of biofilm, polycarbonate surface” value turned out to be 67% in experiment [2] (3.13 μM) and 96% in [2] (12.5 μM). Besides, the “reduction of biofilm formation” value in [3] (6.25 μM added at 0.5 hr after inoculation, DMSO = 100%) is reported as 62%; in experiment [3] (6.25 μM added at 1 hr after inoculation, DMSO = 100%), 19%; in experiment [3] (12.5 μM added at 0.5 and 1 hr after inoculation), “more than 90%”; in [9], 83-97%. In experiment [3] (added at 1.5 and 2 hr after inoculation), the “inhibition of biofilm formation” value was “not inhibited”. The “time of addition after seeding at which β-PGG is effective” value in experiment [3] (added into the culture medium after seeding) is at most 1 h. The “number of cells attached to polystyrene surface” value in experiment [4] (6.25 μM, 20 min, DMSO control 4.1×10^5) is given as 2.1×10^5 CFU; in [4] (6.25 μM, 40 min, DMSO control 6.4×10^5), 2.05×10^5 CFU; in experiment [4] (6.25 μM, 60 min, DMSO control 7.8×10^5) it was 1.8×10^5 CFU; in [4] (12.5 μM, 20 min, DMSO control 4.1×10^5), 3.7×10^4 CFU; in [4] (12.5 μM, 40 min, DMSO control 6.4×10^5), 2.3×10^4 CFU; in experiment [4] (12.5 μM, 60 min, DMSO control 7.8×10^5), 1.7×10^4 CFU. The “cells attached to polystyrene and polycarbonate surfaces (Syto 9)” value in experiment [5] was “significantly reduced the number of cells attached”. The “web structure (likely PIA) on polycarbonate surface by SEM” value in experiment [6] is recorded as “caused the web structure to disappear”. Besides, in [7], the “transcription of icaA” value is reported as “did not influence the transcription of icaA”. Moreover, the “Biofilm (A595)” value in experiment [8] (0 μM: 0.12 ± 0.01, non-biofilm negative control strain) was determined as 0.10 ± 0.01. In [8] (0 μM: 0.69 ± 0.02), the “Growth (A578)” value worked out at 0.70 ± 0.01. The “bacterial attachment onto glass coverslips” value in experiment [10] is reported as “inhibited bacterial attachment onto glass coverslips”.
